Results reported in patent US8729131B2, “Agomelatine hydrochloride hydrate and preparation thereof” (Les Laboratoires Servier, priority 2010, dated 2014).
Where a name gives a salt, the structure may show the parent alone. Values belong to the compound of their own block, whether it stands above or below them.

What was measured:
Type in all cases: physicochemical
[1] = Stability test: product placed in an incubator at 40° C. for 30 days, determined with HPLC; conditions: 40° C. incubator
Experimental: Chromatographic conditions: C18 column; mobile phase: 10 mmol/L phosphate buffer (adjusted to pH 7.0 with NaOH): acetonitrile=2:7 (v/v); column temperature: 40° C.; detection wavelength: 220 nm; internal standard method was used on the products of Examples 1 and 2.
Solutions of the products at 1 mg/mL were prepared with the mobile phase. 10 μL of each solution was injected into the liquid chromatograph system and chromatograms were recorded. The results of the purity are shown in Examples 1 and 2.
Some of the product of Example 1 was placed in an incubator at 40° C. for 30 days to determine its stability with HPLC.

[2] = Water solubility, HPLC external standard method
Experimental: Using external standard method, the product of Example 1 was tested with HPLC, compared with agomelatine crystalline form II.

[3] = Stability test (Chinese Pharmacopoeia): affecting factors test, open container for 10 days; conditions: open container 10 days; for Water: initial 6.10%; for C1: initial 11.86%; for purity: initial purity 99.72%
Experimental: (§1) The method for stability test as described in Chinese Pharmacopoeia was used in this test. • 1) Affecting factors test (in open container for 10 days): high temperature (60° C.), photostability under strong light (45001×), high humidity (92.5% RH at 25° C.) • 2) Accelerated test (in closed container for 6 months): at 40° C., humidity: 75% RH • 3) Long-term test (in closed container for 9 months): at 25° C., humidity: 60% RH

[4] = Stability test (Chinese Pharmacopoeia): accelerated test, closed container for 6 months
Experimental: as §1

[5] = Stability test (Chinese Pharmacopoeia): long-term test, closed container for 9 months
Experimental: as §1

[6] = High humidity (92.5% RH at 25° C.)

stability with HPLC ([1]; Day 0): 99.6%
stability with HPLC ([1]; Day 5): 99.5%
stability with HPLC ([1]; Day 10): 99.5%
stability with HPLC ([1]; Day 30): 99.5%
Agomelatine content ([2]; In 0.1 N HCl, hydrochloride hydrate): 0.40 mg/mL
Agomelatine content ([2]; In pH 7.0 buffer, hydrochloride hydrate): 0.30 mg/mL
Agomelatine content ([2]; In water, hydrochloride hydrate): 0.30 mg/mL
solubility compared with agomelatine per se (in words) ([2]; in water, in 0.1N HCl, or in pH 7.0 buffer): better solubility
Water [3, 6]: 6.03%
C1 [3, 6]: 11.63%
purity [3, 6]: 99.73%
Water ([3]; High temperature (60° C.)): 1.00%
C1 ([3]; High temperature (60° C.)): 1.75%
purity ([3]; High temperature (60° C.)): 99.51%
Water ([3]; Strong light (45001×)): 5.95%
C1 ([3]; Strong light (45001×)): 11.48%
purity ([3]; Strong light (45001×)): 99.67%
Water ([4]; 40° C., 75% RH, closed container 6 months, initial 6.10%): 6.02%
C1 ([4]; 40° C., 75% RH, closed container 6 months, initial 11.86%): 11.65%
purity ([4]; 40° C., 75% RH, closed container 6 months, initial purity 99.72%): 99.64%
stability (in words) ([4]; accelerated test): stable
Water ([5]; 25° C., 60% RH, closed container 9 months, initial 6.10%): 6.00%
C1 ([5]; 25° C., 60% RH, closed container 9 months, initial 11.86%): 11.53%
purity ([5]; 25° C., 60% RH, closed container 9 months, initial purity 99.72%): 99.74%
stability (in words) ([5]; long-term test): stable
SMILES: COc1ccc2cccc(CCNC(C)=O)c2c1 [AG · HCl · H2O, agomelatine hydrochloride hydrate]

Agomelatine content ([2]; In 0.1 N HCl): 0.30 mg/mL
Agomelatine content ([2]; In pH 7.0 buffer): 0.25 mg/mL
Agomelatine content ([2]; In water): 0.26 mg/mL
SMILES: COc1ccc2cccc(CCNC(C)=O)c2c1 [AG crystalline form II, N-[2-(7-methoxy-1-naphthyl)pethyl]-acetamide, reference compound]
